Results taken from patent publication US20110152225A1, “PPAR-Gamma Agonists for the Induction of Cationic Antimicrobial Peptide Expression as Immunoprotective Stimulants” (priority 2007, published 2011).

Tests used:
HD-5 = HD-5 defensin gene expression in intestinal epithelial cells (Caco-2), quantitative PCR; assay type: cell-based, human; conditions: for activation of HD-5, as determined by quantitative PCR analysis: Caco-2 cells
Experimental: (§1) Cultured intestinal epithelial cell lines, namely Caco-2 (of human origin) and ICcl2 (of mice origin), were treated with the GSK-3 inhibitor LiCl ([…]) or the phosphatase inhibitor calyculin (50 nM) followed or not by stimulation with the PPAR-gamma agonist such as rosiglitazone (1 microM).
(§2) The expression of defensin and known target genes of both Wnt and PPAR-gamma signaling pathways were investigated by quantitative real-time PCR. The activation of GSK3, beta-catenin, NF-kappaB, ERK1/2, SAPK/JNK and p38 was measured by specific immunoblotting.

hBD1 = hBD1 defensin mRNA expression in colonic epithelial Caco-2 cells; assay type: cell-based, human; conditions: stimulated for 24 h
Source text: 5-ASA was purchased at Sigma-Aldrich (St Quentin Fallavier, France). Rosiglitazone was synthesized in the laboratory according to standard procedures. The racemic compound 34 and the two enantiomers of the compound, 34-E1 and 34-E2 were provided by Giuliani SpA (Milano, Italy). Compound were re-suspended in DMEM medium (Gibco) and adjusted at pH=7 if necessary with 10N NaOH.
The colon carcinoma cell line Caco-2 (ATCC HTB-39) was routinely grown in DMEM supplemented respectively with 10% or 20% heat-FCS, and antibiotics. Cells were grown in monolayers, incubated at 37° C. in 5% CO2 and 95% relative humidity.
Cell were stimulated by 5-ASA, R34, 34-E1 and 34-E2 for 24 h. Total RNA was isolated from cells using Rneasy kit (Macherey Nagel, Hoerdt, France) according to the manufacturer's instructions. RNA quantification was performed using spectrophotometry. After treatment at 37° C. for 30 min with 20-50 units of RNase-free DNase I (Roche Diagnostics Corporation, Indianapolis, Ind., USA), oligo-dT primers (Roche Diagnostics Corporation, Indianapolis, USA) were used to synthesize single-stranded cDNA. mRNAs were quantified using SYBR green Master Mix (Applera, Courtaboeuf, France) with human specific oligonucleotides for hBD1(S:5′-[…]-3′; AS:5′-TTgTCTGAGATGGCCTCAggTggTAAC-3′) in a GeneAmp Abiprism 7000 (Applera, Courtaboeuf, France). In each assay, calibrated and no-template controls were included. Each sample was run in triplicate. SYBR green dye intensity was analyzed using the Abiprism 7000 SDS software (Applera, Courtaboeuf, France). All results were normalized to the unaffected housekeeping gene of human β-actin (S:5′-TCACCCACACTgTgCCCATCTACg-3′; AS:5′-CAgCggAACCgCTCATTgCCAATg-3′).

LL37 = LL37 (defensin) mRNA expression in colon of healthy mice; assay type: in vivo; conditions: for induction of defensin expression / potency in defensin expression induction compared to 5-ASA: conclusion on the in vitro and in vivo results; for colon defensin (LL37) mRNA expression: healthy mice (n=5), enema during 10 days, 5-ASA 30 mM, R34, E1 and E2 1 mM
Experimental: […] Post-mortem, total RNA was isolated from whole mice colonic tissues using Rneasy kit (Macherey Nagel, Hoerdt, France) according to the manufacturer's instructions. RNA quantification was performed using spectrophotometry. After treatment at 37° C. for 30 min with 20-50 units of RNase-free DNase I (Roche Diagnostics Corporation, Indianapolis, Ind., USA), oligo-dT primers (Roche Diagnostics Corporation, Indianapolis, USA) were used to synthesize single-stranded cDNA. mRNAs were quantified using SYBR green Master Mix (Applera, Courtaboeuf, France) with mouse specific oligonucleotides for LL37(S:5′-gCTgATTCTTTTgACATCAgCTgTAA-3′ AS:5′-gCCAgCCgggAAATTTTCT-3′) in a GeneAmp Abiprism 7000 (Applera, Courtaboeuf, France). In each assay, calibrated and no-template controls were included. Each sample was run in triplicate. SYBR green dye intensity was analyzed using the Abiprism 7000 SDS software (Applera, Courtaboeuf, France). All results were normalized to the unaffected housekeeping gene β-actin (S:5′-gggTCAgAAggATTCCTATg-3′; AS:5′ ggTCTCAAACATgATCTggg-3′).

PPAR-gamma = PPAR-gamma mRNA expression in colon of healthy mice; assay type: in vivo; conditions: healthy mice (n=5); enema during 10 days; 5-ASA 30 mM, R34, E1 and E2 1 mM
cyclin-D1 = test: Expression of Wnt/Tcf/beta-catenin target gene cyclin-D1, quantitative real-time PCR; assay type: cell-based; conditions: stimulation by both calyculin and rosiglitazone
Experimental: as §1, §2

beta-catenin = test: Stability of beta-catenin, immunoblotting; assay type: cell-based; conditions: stimulation by both calyculin and rosiglitazone
Experimental: as §1, §2

[1] = system: Clostridium bacterial cultures; conditions: agar plates in aerobic and anaerobic conditions; U.S. Pat. No. 6,326,364; cited from earlier work
[2] = system: colonies of Lactobacillus, Enterococcus or Bacteroides; conditions: U.S. Pat. No. 6,326,364; cited from earlier work

Row | Compound | activation of HD-5, as determined by quantitative PCR analysis (HD-5) | expression of hBD1 (human defensin-1) (hBD1) | induction of defensin expression (LL37) | colon defensin (LL37) mRNA expression (LL37) | colon PPARy mRNA expression (PPAR-gamma) | further results
1 | CCOC(Cc1cccc(N)c1)C(=O)O (racemic) [Compound 40, (±)-2-ethoxy-3-(3′-aminophenyl)propionic acid] | activates HD-5 | – | – | – | – | –
2 | [Cl-].[Li+] [LiCl, reference compound] | – | – | – | – | – | rosiglitazone-induced defensin gene expression (HD-5; co-stimulation with LiCl): blocked
3 | COC(Cc1ccc(N)cc1)C(=O)O (racemic) [Compound R34, (±)-2-methoxy-3-(4′-aminophenyl)propionic acid] | – | induce the expression of hBD1 | induction of defensin expression | induced | induced | –
4 | COc1ccc(N)cc1C(=O)NO [Compound 14, 5-amino-N-hydroxy-2-methoxybenzamide] | activates HD-5 | – | – | – | – | –
5 | calyculin | – | – | – | – | – | antimicrobial (defensin) gene expression induced by PPAR-gamma activators following co-stimulation (HD-5; co-stimulation by calyculin with rosiglitazone and other PPAR-gamma activators): synergized; expression of Wnt/Tcf/beta-catenin target gene cyclin-D1 (cyclin-D1): markedly decreased; stability of the beta-catenin (beta-catenin): markedly decreased
6 | CCOC(Cc1ccc(N)cc1)C(=O)O (racemic) [Compound 39, (±)-2-ethoxy-3-(4′-aminophenyl)propionic acid] | activates HD-5 | – | – | – | – | –
7 | Nc1ccc(O)c(C(=O)O)c1 [Compound 5-ASA, 5-aminosalycilate, reference compound] | activates HD-5 | induce the expression of hBD1 | induction of defensin expression | induced | induced | antimicrobial effect against Clostridium bacterial cultures [1]: inhibitory effects; antimicrobial effect against colonies of Lactobacillus, Enterococcus or Bacteroides [2]: No effect
8 | CO[C@@H](Cc1cccc(N)c1)C(=O)O [Compound 34-E1, (+) 2-S-methoxy-3-(3-aminophenyl)propionic acid] | – | – | induction of defensin expression | induced | induced | potency in defensin expression induction compared to 5-ASA (LL37): higher potency
9 | CO[C@H](Cc1cccc(N)c1)C(=O)O [Compound 34-E2, (−) 2-R-methoxy-3-(3-aminophenyl)propionic acid] | – | induce the expression of hBD1 | induction of defensin expression | induced | induced | potency in defensin expression induction compared to 5-ASA (LL37): higher potency; gut defensin expression induction (LL37; summary statement referring to FIGS. 8 & 9): particularly effective
